For 15 compounds, TGI results are on record in PubChem BioAssay (NCI).

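Growth conditions: 96-well plates. Treatment: test compound, 48 hours, 5 concentrations. Analysis: linear interpolation between bracketing concentrations; unreached endpoints set to highest concentration. TGI marks complete inhibition of growth.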

Among the test systems are TK-10 renal; U251 CNS; NCI-H23 lung; NCI/ADR-RES ovarian; BT-549 breast; SK-MEL-28 melanoma; 786-0 renal; K-562 leukemia; HOP-92 NSCLC; SN12C renal; SK-MEL-5 melanoma; OVCAR-3 ovarian; A498 renal; CAKI-1 renal; NCI-H226 lung.
Common to all, as to assay: growth of human tumour cells (NCI), 48 h

Regarding `CNC(=O)NS(=O)(=O)c1ccc(C)cc1`, the TGI with TK-10 renal, in the assay with U251 CNS, in the assay with NCI-H23 lung, in the assay on NCI/ADR-RES ovarian, with BT-549 breast and with SK-MEL-28 melanoma was > 100 µM throughout. For the same compound, the TGI in the assay with 786-0 renal, in the assay on K-562 leukemia, in the assay with HOP-92 NSCLC, in the assay with SN12C renal and with SK-MEL-5 melanoma was > 100 µM each time.

On to `O=C1c2ccccc2C(=O)c2c(NCCCN3CCOCC3)ccc(NCCCN3CCOCC3)c21`, for which the TGI in the assay with OVCAR-3 ovarian was found to be 40.3 µM; in the assay with TK-10 renal it was 39.1 µM; in the assay with U251 CNS it was 19 µM; in the assay on NCI-H23 lung, 17.6 µM; in the assay with A498 renal, 25.2 µM; with CAKI-1 renal, 32 µM. Also, the TGI in the assay on BT-549 breast was 21.6 µM; in the assay with NCI-H226 lung, 31.5 µM; in the assay on SK-MEL-28 melanoma, 19.8 µM; in the assay with 786-0 renal, 16.7 µM; with K-562 leukemia, > 100 µM; with HOP-92 NSCLC, 15.9 µM. Further, the TGI worked out at 17.2 µM in the assay with SN12C renal and 6.79 µM in the assay with SK-MEL-5 melanoma.

As for `O=C1C=CC2(C=C1)C[C@H](NC(=O)OCc1ccccc1)C(=O)O2`, the TGI was 30.4 µM in the assay on OVCAR-3 ovarian; 32.4 µM in the assay on TK-10 renal; 37.1 µM in the assay with U251 CNS; 32.5 µM in the assay on NCI-H23 lung; > 100 µM in the assay on A498 renal; 34.8 µM with CAKI-1 renal. Moreover, the TGI is 32.7 µM in the assay on BT-549 breast; > 86.7 µM in the assay on NCI-H226 lung; 27 µM in the assay on SK-MEL-28 melanoma; 27.6 µM with 786-0 renal; > 32.5 µM in the assay with K-562 leukemia; 29.9 µM in the assay with HOP-92 NSCLC. The TGI was determined as 32.7 µM with SN12C renal and 47.9 µM with SK-MEL-5 melanoma.

For the compound `COC(=O)/C(C#N)=C(\N)c1c(C)c2ccccc2oc1=N`, the TGI in the assay on OVCAR-3 ovarian, in the assay on TK-10 renal, in the assay on U251 CNS, in the assay with A498 renal, with BT-549 breast and in the assay with SK-MEL-28 melanoma was > 100 µM throughout. The TGI with 786-0 renal, with K-562 leukemia, in the assay with HOP-92 NSCLC, with SN12C renal and with SK-MEL-5 melanoma was > 100 µM in each case.

As for `CCCNC(=O)N(C)C(=O)N1N=C(c2ccccc2)C1c1ccccc1` (configuration not stated), the TGI with OVCAR-3 ovarian, in the assay with TK-10 renal, in the assay with U251 CNS, in the assay with NCI-H23 lung, with A498 renal and with NCI/ADR-RES ovarian was > 100 µM throughout. Moreover, the TGI with CAKI-1 renal, in the assay with NCI-H226 lung, with SK-MEL-28 melanoma, with 786-0 renal, in the assay on K-562 leukemia and in the assay on HOP-92 NSCLC was > 100 µM each time. Also, the TGI with SN12C renal and in the assay on SK-MEL-5 melanoma was > 100 µM throughout.

In the case of `CC(=O)/C(C=Nc1c(C)n(C)n(C)c1=O)=C(/O)c1ccccc1`, the TGI with OVCAR-3 ovarian, with TK-10 renal, in the assay on U251 CNS, in the assay with NCI-H23 lung, with A498 renal and with CAKI-1 renal was > 50 µM each time. The TGI with BT-549 breast, in the assay with NCI-H226 lung, with SK-MEL-28 melanoma, in the assay on 786-0 renal, in the assay on K-562 leukemia and with HOP-92 NSCLC was > 50 µM in each case. Further, the TGI in the assay with SN12C renal and in the assay with SK-MEL-5 melanoma was > 50 µM each time.

Turning to `CC[C@H](C)[C@H](NC(=O)[C@@]1(O)[C@H](O)[C@]2(CC)C=CCN3CC[C@@]4(c5cc(Br)c(OC)cc5N(C)[C@@H]14)[C@@H]32)C(=O)OC`, the TGI in the assay on OVCAR-3 ovarian, in the assay with TK-10 renal, in the assay with U251 CNS, with NCI-H23 lung, with A498 renal and with NCI/ADR-RES ovarian was > 100 µM each time. For the same compound, the TGI with CAKI-1 renal was > 100 µM; in the assay on BT-549 breast it was > 100 µM; with SK-MEL-28 melanoma, 38.7 µM; in the assay on 786-0 renal it was > 100 µM; in the assay on K-562 leukemia, > 100 µM; in the assay on SN12C renal it was > 100 µM. The compound further came in with a TGI in the assay with SK-MEL-5 melanoma of 87.4 µM.

`c1ccc([P+](CCCCCC[P+](c2ccccc2)(c2ccccc2)c2ccccc2)(c2ccccc2)c2ccccc2)cc1`: the TGI was > 100 µM in the assay on OVCAR-3 ovarian; > 100 µM in the assay with TK-10 renal; > 100 µM in the assay with U251 CNS; 69.6 µM in the assay with NCI-H23 lung; > 100 µM in the assay with A498 renal; > 100 µM with NCI/ADR-RES ovarian. In addition, the TGI in the assay with CAKI-1 renal is > 100 µM; with NCI-H226 lung, > 100 µM; with SK-MEL-28 melanoma, > 100 µM; with 786-0 renal it was > 100 µM; in the assay with K-562 leukemia, > 100 µM; in the assay with HOP-92 NSCLC, 66.7 µM. Besides, in the assay on SN12C renal, the TGI was > 100 µM.

`COC1/C=C/C(C)C(C(C)C(OC)C(C)CCC(=O)C(C)C(CC(=O)O)OC)OC(=O)/C=C/C=C(\C)CC(OC)CC2=CC(=O)O[C@H](C2)C(C)C(OC)CC(OC)/C=C/C(C)C(OC)C1` (some centres not stated): the TGI in the assay with OVCAR-3 ovarian was > 4.35 µM; in the assay on TK-10 renal, 1.66 µM; in the assay on U251 CNS it was > 4.35 µM; in the assay on NCI-H23 lung, > 4.35 µM; with A498 renal, 2.17 µM; in the assay with NCI/ADR-RES ovarian, > 4.35 µM. Moreover, the TGI is 0.851 µM in the assay with CAKI-1 renal; 2.26 µM with NCI-H226 lung; 1.25 µM in the assay with SK-MEL-28 melanoma; > 4.35 µM in the assay on 786-0 renal; > 4.35 µM with K-562 leukemia; 1.32 µM with HOP-92 NSCLC. Moreover, the TGI with SN12C renal and in the assay with SK-MEL-5 melanoma was > 4.35 µM each time.

Regarding `N#Cc1c(N2CCN(c3ccc([N+](=O)[O-])cc3)CC2)[n+](=O)c2ccccc2n1[O-]`, the TGI in the assay on OVCAR-3 ovarian, in the assay on TK-10 renal, in the assay on U251 CNS, in the assay on NCI-H23 lung, in the assay with NCI/ADR-RES ovarian and with CAKI-1 renal was > 100 µM throughout. In addition, the TGI with BT-549 breast, with SK-MEL-28 melanoma, in the assay on 786-0 renal, in the assay on K-562 leukemia, with SN12C renal and in the assay on SK-MEL-5 melanoma was > 100 µM in each case.

With `N#Cc1c(O)c2ccccc2[nH]c1=O`, the TGI in the assay on OVCAR-3 ovarian, with TK-10 renal, in the assay with U251 CNS, with NCI-H23 lung, in the assay with A498 renal and in the assay on NCI/ADR-RES ovarian was > 100 µM each time. Also, the TGI in the assay on CAKI-1 renal, with NCI-H226 lung, in the assay on SK-MEL-28 melanoma, in the assay on 786-0 renal, in the assay on K-562 leukemia and in the assay with HOP-92 NSCLC was > 100 µM in each case. The TGI in the assay on SN12C renal and in the assay with SK-MEL-5 melanoma was > 100 µM throughout.

On to `O=C1O/C(=C\c2ccc(O)cc2)C(c2ccc(O)c(Cl)c2)=C1Cl`, for which the TGI with OVCAR-3 ovarian was > 100 µM; in the assay on TK-10 renal it was > 100 µM; in the assay on U251 CNS it was > 100 µM; in the assay on NCI-H23 lung, 76.6 µM; with A498 renal, > 100 µM; in the assay on NCI/ADR-RES ovarian it was 97.6 µM. For the same compound, the TGI with CAKI-1 renal was > 100 µM; in the assay on NCI-H226 lung, > 100 µM; in the assay on SK-MEL-28 melanoma it was > 100 µM; with 786-0 renal it was > 100 µM; with K-562 leukemia, > 100 µM; with HOP-92 NSCLC, 60.6 µM. Moreover, the TGI with SN12C renal was > 100 µM; in the assay with SK-MEL-5 melanoma it was 43.2 µM.

As to `Cc1cc2nc(N3C(=O)/C(=C/c4ccc(N(C)C)cc4)N=C3c3ccccc3)sc2cc1C`, the TGI with OVCAR-3 ovarian, with TK-10 renal, in the assay with U251 CNS, in the assay on NCI/ADR-RES ovarian, in the assay on CAKI-1 renal and in the assay with BT-549 breast was > 100 µM each time. Further, the TGI in the assay on SK-MEL-28 melanoma is > 100 µM; in the assay with 786-0 renal, 49.9 µM; in the assay with K-562 leukemia, > 100 µM; in the assay with HOP-92 NSCLC it was 53 µM; in the assay on SN12C renal, 57.8 µM; in the assay on SK-MEL-5 melanoma it was 44.4 µM.

For the compound `[N-]=[N+]=CC(=O)CCC(=O)N(c1ccccc1)c1ccccc1`, the TGI in the assay on OVCAR-3 ovarian, with TK-10 renal, with U251 CNS, with NCI-H23 lung, with A498 renal and in the assay on BT-549 breast was > 10 µM each time. Also, the TGI in the assay with NCI-H226 lung, in the assay with SK-MEL-28 melanoma, with 786-0 renal, in the assay on K-562 leukemia, with HOP-92 NSCLC and in the assay on SN12C renal was > 10 µM in each case. Besides, the TGI in the assay with SK-MEL-5 melanoma was > 10 µM.

For the compound `O=c1c2c(F)c(F)c(F)c(F)c2sc2nccn12`, the TGI was found to be 29.8 µM in the assay on OVCAR-3 ovarian; 32.8 µM in the assay with TK-10 renal; 29.2 µM with U251 CNS; 34.9 µM in the assay on NCI-H23 lung; 35.1 µM in the assay on A498 renal; 93.3 µM with NCI/ADR-RES ovarian. The TGI stood at 33.3 µM in the assay on CAKI-1 renal; 52.3 µM in the assay on NCI-H226 lung; 53.5 µM with SK-MEL-28 melanoma; 29.3 µM with 786-0 renal; 29.4 µM in the assay with K-562 leukemia; 39.4 µM in the assay on HOP-92 NSCLC. Also, the results for the TGI in the assay with SN12C renal and in the assay on SK-MEL-5 melanoma were 33.3 µM and 35.8 µM, respectively.
